Legend:
Mitofusin (Marf) = experiment: Flies fed compound, Mitofusin (Marf) Western blot; type: in vivo, fruit flies; details: wild-type flies fed 250 μM for 7 days
Procedure: FIG. 2A-FIG. 2F. Miro1 Reducer Eliminates the Miro1 Defect in PD Fibroblasts. (FIG. 2A) Chemical properties of Miro1 Reducer. (FIG. 2B) Wild-type flies (w^1118) were fed with DMSO alone (0 μM Miro1 Reducer) or Miro1 Reducer in DMSO at 250 μM for 7 days, and lysed and blotted as indicated. The band intensities are normalized to those of Tubulin from the same blots. n=4. (FIG. 2C-FIG. 2E) Fibroblasts were treated, lysed, and blotted as indicated. (FIG. 2C) Band intensities are normalized to those of GAPDH from the same blots and compared to “Healthy-1, no treatment” except otherwise indicated. n=4. (FIG. 2D) Band intensities are normalized to those of ATP5β from the same blots and expressed as a percentage of the mean of “0 μM Miro1 Reducer with CCCP”. Mean±S.E.M is shown. n=3. (FIG. 2E) Band intensities are normalized to those of GAPDH from the same blots and compared to “Healthy-1, no CCCP, no MG132” except otherwise indicated. n=4. […] The Miro1 intensity is normalized to that of mito-dsRed from the same cell and quantified across 37-62 cells from 5 fields each transfection, 3 independent transfections. […]
We assessed the binding ability of 6,835,320 commercialized small molecules to one of the two atypical Rho GTPase domains of Miro1 (amino acids 411-592) (FIG. 6C) by a customized virtual screen using the artificial intelligence (AI) technology. […]

iPSC-derived neurons = experiment: Mitochondrial motility and clearance in axons of iPSC-derived neurons, live imaging; type: cell-based, human; details: 5 μM for 24 hrs
Procedure: FIG. 3A-FIG. 3D. Miro1 Reducer Rescues Parkinson's Neurodegeneration. (FIG. 3A) Fibroblasts were treated, lysed, and blotted as indicated. Band intensities are normalized to those of ATP5β from the same blots and compared to “Healthy-2, no treatment”. n=4. (FIG. 3B-FIG. 3C) iPSC-derived neurons were treated as indicated and immunostained with anti-TH (FIG. 3B) or stained with PI and Dapi (FIG. 3C). Both Antimycin A and Miro1 Reducer were dissolved in ethanol. Neurons were pretreated with Miro1 Reducer 24 hrs before the application of Antimycin A for another 6 hrs. The same volume of ethanol was applied at the same time in negative controls. (FIG. 3B) The density of TH-positive neurons is calculated in each condition under 20×, from 10 fields each experiment, 3-4 experiments. […] (FIG. 3C) The percentage of PI-positive cells out of total cells (Dapi-positive) is calculated. n=20 fields each experiment, 4 experiments. […] Graphs of Mean±S.E.M show the percent of time each mitochondrion is in motion (red and blue, compared to “Wild-type-I, before treatment”), and the mitochondrial intensity normalized to that of the same axonal region at “0 min” and expressed as a fraction of the mean of “Wild-type-I, 0 min”. n=33-77 mitochondria from 5-8 axons from 5-8 separate transfections. […]
Live Image Acquisition and Quantification. […]

For O=C(Nc1ccc(Nc2cc(-n3ccnc3)ncn2)cc1)Nc1cccc(F)c1 [Miro1 Reducer], the “effect on OMM GTPase Mitofusin (Marf)” value (Mitofusin (Marf)) was “did not significantly affect”, the “basal motility of polarized, healthy mitochondria” value (iPSC-derived neurons) was “did not affect” and the “delayed arrest and clearance of depolarized mitochondria” value (iPSC-derived neurons; then 100 μM Antimycin A, PD patient neurons) was “rescued the delayed arrest and clearance of depolarized mitochondria”.

Source: US12544375B2, “Small molecule therapeutic for parkinson's disease paired with a biomarker of therapeutic activity” (The Board of Trustees of the Leland Stanford Junior …, priority 2019, dated 2026)
